# Measurements reported in patent US20100041760A1, “MONOARYL AMINOTETRALINES” (priority 2008, published 2010).
# pIC50: −log10 of the molar value.
# Test system: DK-PGD2-induced IL-13 production in T helper type 2 (Th2) cells
# Test: DK-PGD2-Induced IL-13 Production Assay in Th2 Cells
# Type: cell-based
# Conditions: human Th2 cells; 500 nM DK-PGD2; 4 hrs at 37° C.; 10% human AB serum; ELISA; read-out: IC50 value, inhibition of IL-13 production
# Description: Cultures of Th2 cells were established from blood of healthy human volunteers according to the following procedure. Peripheral blood mononuclear cells (PBMC) were first isolated from 50 mL of fresh blood by Ficoll-Hypaque density gradient centrifugation, followed by CD4^+ cell purification using a CD4^+ T Cell Isolation Kit II (from Miltenyi Biotec Inc.). The CD4^+ T cells were then differentiated to Th2 cells by culturing the cells in X-VIVO 15® medium (from Cambrex BioScience Walkersville Inc.) containing 10% human AB serum (serum of blood type AB from Invitrogen Corporation), 50 U/mL of recombinant human interleukin-2 (rhIL-2) (from PeproTech Inc.) and 100 ng/mL of recombinant human interleukin-4 (rhIL-4) (from PeproTech Inc.) for 7 days. The Th2 cells were isolated using a CD294 (CRTH2) MicroBead Kit (from Miltenyi Biotec Inc.) and amplified in X-VIVO 15® medium containing 10% human AB serum and 50 U/mL of rhIL-2 for 2 to 5 weeks. In general, 70% to 80% of the Th2 cells used in the assay are CRTH2-positive when analyzed by fluorescence-activated cell sorting using the BM16 antibody (as previously described) conjugated to phycoerythrin (PE).
# To determine cellular inhibitory potency, compounds at various concentrations were incubated with 2.5×10^4 Th2 cells and 500 nM DK-PGD2 for 4 hrs at 37° C. in 200 μL of X-VIVO 15® medium containing 10% human AB serum. […] The spontaneous production of IL-13 by Th2 cells was determined in the absence of DK-PGD2 stimulation and the value was subtracted from that in the presence of each compound for percent inhibition and IC50 calculations.
# The percent inhibition of interleukin 13 (IL-13) production for a compound at various concentrations was calculated according to the following formula, [1-(IL-13 production in the presence of compound)/(IL-13 production in the presence of 0.15% DMSO)]×100. The IC50 value, defined as the concentration of a compound that is required for 50% inhibition of IL-13 production, was calculated by fitting the percent inhibition data for 7 concentrations to a sigmoidal dose-response (4 parameter logistic) model in the XLfit® software Excel add-in program [ID Business Solutions Ltd., model 205, where F(x)=(A+(B−A)/(1+((C/x)̂D)))].
row,pIC50,SMILES
1,5.33,"CN([C@@H]1CCCc2c(OCC(=O)O)cccc21)S(=O)(=O)c1cc(F)cc(C(F)(F)F)c1 [Example 1-1, {(R)-5-[(3-fluoro-5-trifluoromethyl-benzenesulfonyl)-methyl-amino]-5,6,7,8-tetrahydro-naphthalen-1-yloxy}-acetic acid]"
2,5.52,"CCN(CC)c1cc(C(F)(F)F)cc(S(=O)(=O)N(C)[C@@H]2CCCc3c(OCC(=O)O)cccc32)c1 [Example 4-2, {(R)-5-[(3-diethylamino-5-trifluoromethyl-benzenesulfonyl)-methyl-amino]-5,6,7,8-tetrahydro-naphthalen-1-yloxy}-acetic acid]"
3,5.31,"CCOc1cc(C(F)(F)F)cc(S(=O)(=O)N(C)[C@@H]2CCCc3c(OCC(=O)O)cccc32)c1 [Example 9-2, {(R)-5-[(3-ethoxy-5-trifluoromethyl-benzenesulfonyl)-methyl-amino]-5,6,7,8-tetrahydro-naphthalen-1-yloxy}-acetic acid]"
4,5.29,"CN([C@@H]1CCCc2c(OCC(=O)O)cccc21)S(=O)(=O)c1cc(OC2CCCC2)cc(C(F)(F)F)c1 [Example 9-3, {(R)-5-[(3-cyclopentyloxy-5-trifluoromethyl-benzenesulfonyl)-methyl-amino]-5,6,7,8-tetrahydro-naphthalen-1-yloxy}-acetic acid]"
